In PMC4045703 (Bioorganic & medicinal chemistry, 2014):
Converted amounts (≈) assume the structure as drawn.

Experiments:
Mtb H37Rv = assay: MIC determination by microplate Alamar Blue assay; format: cell-based; conditions: Mycobacterium tuberculosis, read-out: MIC Mtb H37Rv
Mtb-FtsZ [1] = target: T1, Mtb-FtsZ (Mycobacterium tuberculosis, UniProt P9WN95); assay: Mtb-FtsZ polymerization inhibitory assay; format: biochemical; conditions: light scattering, Mtb-FtsZ 15 μM, GTP 100 μM
Mtb-FtsZ [2] = target: T1, Mtb-FtsZ; assay: Transmission electron microscopy; format: biochemical; conditions: Mtb-FtsZ 5 μM, GTP 25 μM
Cytotoxicity, MTT assay = format: cell-based; conditions: African green monkey, Vero cells

T1 sequence (P9WN95 whole entry): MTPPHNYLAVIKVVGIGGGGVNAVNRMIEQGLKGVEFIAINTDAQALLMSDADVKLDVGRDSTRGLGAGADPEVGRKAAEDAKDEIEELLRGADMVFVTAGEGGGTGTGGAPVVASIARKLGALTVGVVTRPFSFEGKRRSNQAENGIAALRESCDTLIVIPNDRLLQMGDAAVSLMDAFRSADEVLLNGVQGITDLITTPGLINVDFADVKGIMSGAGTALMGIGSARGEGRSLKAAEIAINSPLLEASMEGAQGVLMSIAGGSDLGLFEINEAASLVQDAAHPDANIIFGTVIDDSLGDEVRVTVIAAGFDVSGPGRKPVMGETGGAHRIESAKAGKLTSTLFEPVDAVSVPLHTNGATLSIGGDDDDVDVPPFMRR

CCCCSc1cc2[nH]c(C3CCCCC3)nc2cc1NC(=O)c1ccc(C)cc1 [Compound 5i, 6-(Butylthio)-5-(4-metylbenzamido)-2-cyclohexyl-1H-benzo[d]imidazole]
MIC (Mtb H37Rv): 1.25 µg/mL (≈ 2.96 µM)

CCCCOC(=O)Nc1cc2nc(C3CCCCC3)[nH]c2cc1Oc1ccc(F)cc1 [Compound 5a, 5-Butoxycarbonylamino-2-cyclohexyl-6-(4-fluorophenoxy)-1H-benzo[d]imidazole]
Inhibition of FtsZ polymerization (Mtb-FtsZ [1]): inhibited FtsZ polymerization in a dose-dependent manner | Effect on FtsZ polymers in TEM (Mtb-FtsZ [2]; 5a 40 μM): the length, density and aggregation was visibly reduced | Effect on FtsZ polymers in TEM (Mtb-FtsZ [2]; 5a 80 μM): very short and dispersed FtsZ polymers were observed

Cc1ccc(C(=O)Nc2cc3nc(C4CCCCC4)[nH]c3cc2Sc2ccccc2)cc1 [Compound 5f, 2-Cyclohexyl-5-(4-methxylbenzamido)-6-(phenylthio)-1H-benzo[d]imidazole]
IC50 at 3 days (Cytotoxicity, MTT assay): > 200 µM

O=C(Nc1cc2nc(C3CCCCC3)[nH]c2cc1Oc1ccc(F)cc1)c1ccc(F)cc1F [Compound 5d, 2-Cyclohexyl-5-(2,4-difluorobenzamido)-6-(4-fluorophenoxy)-1H-benzo[d]imidazole]
Inhibition of FtsZ polymerization (Mtb-FtsZ [1]): inhibited FtsZ polymerization in a dose-dependent manner
